# Assay: Dissolution / release profile of BAEE from the delivery system (USP XXIII dissolution paddle apparatus)
# Assay type: physicochemical
# Details: PBS pH 7.2, 37±1°C, 100 rpm
# Protocol: The dissolution of a coated and a non-coated delivery system according to the present invention was investigated by using the standard USP XXIII dissolution paddle apparatus. The paddle speed was 100 rpm and the dissolution medium was phosphate buffer solution (PBS) pH 7.2 at 37±1°C. PBS was prepared according to the method of USP XXIII. Three replicates for each sample were tested at specific interval times and their mean percent release was calculated.
# Two release patterns of example 1, showing the release profiles of BAEE from the system with and without a gelatin enteric coating (capsule) are depicted in Figures 6 and 7, respectively.
# Data are expressed as mean ± standard deviation (SD, n=6). (Standard USP XXIII dissolution apparatus is used with Phosphate Buffer Solution (PBS) pH = 7.2 as a dissolution medium. Temperature was 37±1°C and paddle speed was 100 rpm).
# Data are expressed as mean ±SD (n=6). (Standard USP XXIII dissolution apparatus is used with PBS pH = 7.2 as a dissolution medium. Temperature was 37±1°C and paddle speed was 100 rpm).
smiles,measurement,setting,value
"CCOC(=O)[C@H](CCCN=C(N)N)NC(=O)c1ccccc1 [BAEE, N-α-benzoyl-L-arginine ethylester]",lag time,"system of Example 1 inserted in gelatin capsule and enteric-coated (Figure 7), compared with non-coated system",increased
same,amount of drug released after the lag time,"system of Example 1 not inserted in gelatin capsule (Figure 6), within a short period of time",whole amount of drug is released

# Reference: EP1095650A1, “Double phase time-controlled release system” (Universiteit Leiden, priority 1999, dated 2001)
